From patent US10760052B2, “Method of inhibiting tau phosphorylation” (priority 2012, dated 2020)
Read-outs that look alike come from different tables or passages of the source.

Target: T1, mu opiate receptor (MOR) (Rattus norvegicus, UniProt P33535)
T1 construct: from tissue; host or cells: striatum (membrane preparation)
Type: biochemical
Conditions: for MOR agonist activity ([35S]GTPγS binding), compound as agonist: preliminary study, average of two runs; for Concentration of FLNA-Binding Compound as Agonist 0.1 μM / Concentration of FLNA-Binding Compound as Agonist 1 μM / Concentration of FLNA-Binding Compound as Agonist 1 μM + BFNA: [35S]GTPγS binding to Gαo in striatal membranes; for Concentration of FLNA-Binding Compound as Agonist 0.1 μM: compound 0.1 μM; for Concentration of FLNA-Binding Compound as Agonist 1 μM: compound 1 μM; for Concentration of FLNA-Binding Compound as Agonist 1 μM + BFNA: compound 1 μM plus 1 μM β-funaltrexamine (MOR antagonist)

[1] = 0.1 μM compound, striatal membranes, Series C-2
[2] = 1 μM compound + 1 μM β-FNA (selective MOR antagonist), Series C-2
[3] = 1 μM compound, striatal membranes, Series C-2

T1 sequence (P33535 whole entry): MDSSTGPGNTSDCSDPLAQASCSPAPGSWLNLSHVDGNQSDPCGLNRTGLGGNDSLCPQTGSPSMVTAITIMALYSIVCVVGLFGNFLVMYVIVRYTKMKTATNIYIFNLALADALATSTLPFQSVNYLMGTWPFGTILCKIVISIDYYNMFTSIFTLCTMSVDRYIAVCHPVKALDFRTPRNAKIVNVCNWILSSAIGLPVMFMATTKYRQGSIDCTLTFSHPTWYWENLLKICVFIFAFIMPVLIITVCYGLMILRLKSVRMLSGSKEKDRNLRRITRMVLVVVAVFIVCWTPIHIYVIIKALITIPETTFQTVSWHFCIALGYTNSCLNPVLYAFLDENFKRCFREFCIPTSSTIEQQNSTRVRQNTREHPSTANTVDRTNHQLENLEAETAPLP

Compound	% DAMGO (0.1 μM)	% DAMGO (1 μM)	% DAMGO + BFNA	[35S]GTPγS binding, FLNA-Binding Compound as Agonist at 0.1 μM [1]	[35S]GTPγS binding, FLNA-Binding Compound as Agonist at 1 μM + BFNA [2]	[35S]GTPγS binding, FLNA-Binding Compound as Agonist at 1 μM [3]	[35S]GTPγS binding, FLNA-Binding Compound as Agonist at 0.1 μM	[35S]GTPγS binding, FLNA-Binding Compound as Agonist at 1 μM	[35S]GTPγS binding, FLNA-Binding Compound as Agonist at 1 μM + BFNA	MOR agonist activity ([35S]GTPγS binding), compound as agonist (0.1 μM)	MOR agonist activity ([35S]GTPγS binding), compound as agonist (1 μM + βNFA)	MOR agonist activity ([35S]GTPγS binding), compound as agonist (1 μM)	Concentration of FLNA-Binding Compound as Agonist 0.1 μM	Concentration of FLNA-Binding Compound as Agonist 1 μM	Concentration of FLNA-Binding Compound as Agonist 1 μM + BFNA
CC(=O)c1ccc(S(=O)(=O)N2CC(CN(C)C)OC23CCN(C)CC3)cc1 (stereo not drawn) [Compound C0108M]	108.7%	104.1%	158.6%	205.6%	76.9%	258.5%									
O=C1CNC2(CCNCC2)N1Cc1ccccc1 [Compound C0114M]	77.6%	71.4%	91.3%				114.0%	144.3%	35.9%						
O=C1CN(Cc2ccccc2)C2(CCNCC2)N1 [Compound C0115M]	105.7%	102.0%	249.3%				177.2%	226.8%	118.4%						
CS(=O)(=O)c1ccc(S(=O)(=O)N2CCOC23CCNCC3)cc1 [Compound C0116M]	136.6%	122.0%	313.4%				258.4%	302.8%	152.0%						
CC(=O)c1ccc(S(=O)(=O)N2CC(CN(C)C)OC23CCNCC3)cc1 (stereo not drawn) [Compound C0118M]	87.8%	105.4%	163.3%				166.2%	261.5%	79.2%						
CC(=O)c1ccc(S(=O)(=O)N2C(Cc3c[nH]cn3)C(=O)NC23CCNCC3)cc1 (stereo not drawn) [Compound C0119M]	71.9%	83.0%	89.3%				105.7%	167.8%	35.1%						
O=C1CN(Cc2ccccc2)C2(CCN(CC3CC3)CC2)N1 [Compound C0125M]	89.1%	78.6%	329.3%	168.6%	159.7%	195.2%									
CS(=O)(=O)c1ccc(S(=O)(=O)N2CCOC23CCN(CC2CC2)CC3)cc1 [Compound C0126M]	108.5%	119.3%	228.4%	181.8%	108.5%	265.3%									
CC(=O)c1ccc(S(=O)(=O)N2CC(CN(C)C)OC23CCN(CC2CC2)CC3)cc1 (stereo not drawn) [Compound C0128M]	104.5%	115.2%	131.8%	197.8%	63.9%	286.0%									
COc1ccc(S(=O)(=O)N2CCOC23CCN(C(C)C)CC3)cc1 [Compound C0133M]	83.2%	96.6%	152.4%	139.4%	72.4%	214.8%									
Cc1ccc(S(=O)(=O)N2CCOC23CCN(CC2CC2)CC3)cc1 [Compound C0134M]										150.7%	53.2%	224.0%			
CCc1ccc(S(=O)(=O)N2CCOC23CCN(CC2CC2)CC3)cc1 [Compound C0135M]	85.3%	124.9%	233.6%				161.3%	310.1%	113.3%						
O=C1CN(Cc2ccccc2)C2(CCN(S(=O)(=O)c3cc(Cl)cc(Cl)c3O)CC2)N1 [Compound C0138M]	86.3%	90.9%	131.0%										126.9%	183.9%	51.5%
O=C1CN(Cc2ccccc2)C2(CCN(S(=O)(=O)c3cc(Cl)c(O)c(Cl)c3)CC2)N1 [Compound C0139M]	106.2%	102.2%	129.8%										156.1%	206.6%	51.0%
O=S(=O)(c1ccc2ccccc2c1)N1CCC2(CC1)OCCN2S(=O)(=O)c1ccc2ccccc2c1 [Compound C0140M]	85.8%	106.5%	211.2%										126.1%	215.4%	83.0%
O=S(=O)(c1cccs1)N1CCC2(CC1)OCCN2S(=O)(=O)c1cccs1 [Compound C0141M]	109.9%	105.8%	121.9%										161.5%	213.9%	47.9%
COc1ccc(S(=O)(=O)N2CCC3(CC2)NCCC(=O)N3)cc1 [Compound C0142M]	97.8%	95.2%	251.1%	143.7%	98.7%	192.5%									
O=S(=O)(c1cccc2cccnc12)N1CCC2(CC1)OCCN2S(=O)(=O)c1cccc2cccnc12 [Compound C0143M]	47.1%	59.3%	94.7%	81.0%	86.5%	193.3%							81.0%	193.3%	86.5%
COc1ccc(S(=O)(=O)N2CCC3(NCCO3)C3CCCCC32)cc1 (stereo not drawn) [Compound C0144M-2]	108.3%	90.8%	137.9%	186.3%	125.9%	295.9%									
COc1ccc(S(=O)(=O)N2CCC3(OCCN3S(=O)(=O)c3ccc(OC)cc3)C3CCCCC32)cc1 (stereo not drawn) [Compound C0144M]	108.3%	90.8%	137.9%										186.3%	295.9%	125.9%
COc1ccc(S(=O)(=O)N2CCOC23CCCNC3)cc1 (stereo not drawn) [Compound C0145M-3]	112.2%	88.7%	95.3%	193.0%	87.0%	289.2%									
COc1ccc(S(=O)(=O)N2CCCC3(C2)OCCN3S(=O)(=O)c2ccc(OC)cc2)cc1 (stereo not drawn) [Compound C0145M]	112.2%	88.7%	95.3%										193.0%	289.2%	87.0%
O=S(=O)(c1ccccc1Oc1ccccc1)N1CCC2(CC1)NCCO2 [Compound C0149M-2]	122.0%	124.8%	102.3%	209.8%	93.4%	406.7%									
O=S(=O)(c1ccc(Oc2ccccc2)cc1)N1CCC2(CC1)OCCN2S(=O)(=O)c1ccc(Oc2ccccc2)cc1 [Compound C0149M]	122.0%	124.8%	102.3%										209.8%	406.7%	93.4%
O=S(=O)(c1csc2ccccc12)N1CCC2(CC1)OCCN2S(=O)(=O)c1csc2ccccc12 [Compound C0150M]	97.2%	129.8%	173.2%										167.1%	423.1%	93.4%
COc1ccc(NC(=O)N2CCC3(CC2)NCCO3)cc1 [Compound C0151M-2]	201.6%	122.0%	233.1%	346.8%	212.8%	397.6%									
COc1ccc(NC(=O)N2CCC3(CC2)OCCN3C(=O)Nc2ccc(OC)cc2)cc1 [Compound C0151M]	201.6%	122.0%	233.1%										346.8%	397.6%	212.8%
